In assay [1] the target is D(3) dopamine receptor (Homo sapiens, UniProt P35462). Kind of assay: biochemical. The format is cell-based, CHO.
Description: Binding affinity towards human Dopamine receptor D3 by displacement of [125I]iodosulpiride expressed in CHO cells
The target in assay [2] is D(2) dopamine receptor (Homo sapiens, UniProt P14416). Kind of assay: biochemical. In kind it is cell-based, CHO.
Description: Binding affinity towards human Dopamine receptor D2 by displacement of [125I]iodosulpiride expressed in CHO cells

SMILES strings stand for the structures.

Usually Ki stands for the equilibrium dissociation constant of an inhibitor or competing ligand from its target. A lower Ki goes with tighter binding.

Sequence of D(2) dopamine receptor (P14416 whole entry): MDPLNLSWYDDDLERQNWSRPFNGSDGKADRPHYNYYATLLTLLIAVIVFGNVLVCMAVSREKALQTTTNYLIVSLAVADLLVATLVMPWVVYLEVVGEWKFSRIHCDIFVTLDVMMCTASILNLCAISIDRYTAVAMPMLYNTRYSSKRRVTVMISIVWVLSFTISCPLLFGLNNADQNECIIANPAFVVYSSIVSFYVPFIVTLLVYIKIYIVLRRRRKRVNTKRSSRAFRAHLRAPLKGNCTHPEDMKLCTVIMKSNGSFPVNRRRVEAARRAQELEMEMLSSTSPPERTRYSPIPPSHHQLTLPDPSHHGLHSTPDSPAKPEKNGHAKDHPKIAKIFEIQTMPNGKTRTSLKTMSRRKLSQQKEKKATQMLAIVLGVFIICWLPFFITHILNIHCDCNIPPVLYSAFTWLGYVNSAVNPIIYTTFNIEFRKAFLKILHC
Sequence of D(3) dopamine receptor (P35462 whole entry): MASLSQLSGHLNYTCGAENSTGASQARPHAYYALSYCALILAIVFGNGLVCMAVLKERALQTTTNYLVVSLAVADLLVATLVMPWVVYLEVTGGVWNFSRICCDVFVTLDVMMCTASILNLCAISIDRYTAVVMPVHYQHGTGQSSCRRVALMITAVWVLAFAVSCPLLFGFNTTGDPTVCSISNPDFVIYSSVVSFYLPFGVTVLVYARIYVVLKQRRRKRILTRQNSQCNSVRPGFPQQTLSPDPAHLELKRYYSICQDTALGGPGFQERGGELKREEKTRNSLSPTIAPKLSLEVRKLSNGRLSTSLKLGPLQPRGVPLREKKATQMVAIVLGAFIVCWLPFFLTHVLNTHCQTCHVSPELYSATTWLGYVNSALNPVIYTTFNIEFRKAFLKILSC

Turning to `N#Cc1ccc2c(c1)CCN(CC[C@H]1CC[C@H](NC(=O)c3cc4ccccc4[nH]3)CC1)CC2`, the Ki in assay [1] was 15.8 nM; in assay [2], 316 nM.

Regarding `COc1cccc(/C=C/C(=O)N[C@H]2CC[C@H](CCN3CCc4ccc(C#N)cc4CC3)CC2)c1`, the Ki was 3.16 nM in assay [1] and 631 nM in assay [2].

Regarding `N#Cc1ccc2c(c1)CCN(CC[C@H]1CC[C@H](NC(=O)c3cccc4ncccc34)CC1)CC2`, the Ki was 12.6 nM in assay [1] and 2000 nM in assay [2].

For `N#Cc1ccc2c(c1)CCN(CC[C@H]1CC[C@H](NC(=O)/C=C/c3ccc(F)cc3)CC1)CC2`, the Ki in assay [1] was 6.31 nM; in assay [2], 398 nM.

`N#Cc1ccc2c(c1)CCN(CC[C@H]1CC[C@H](NC(=O)c3cccc4ccccc34)CC1)CC2`: the results for the Ki in assay [1] and in assay [2] were 20 nM and 1260 nM, respectively.

Take `CC(=O)Nc1cccc(/C=C/C(=O)N[C@H]2CC[C@H](CCN3CCc4ccc(C#N)cc4CC3)CC2)c1F`: the Ki is 3.98 nM in assay [1] and 501 nM in assay [2].

Consider `CC(=O)Nc1cccc(/C=C/C(=O)N[C@H]2CC[C@H](CCN3CCc4ccc(C#N)cc4CC3)CC2)c1`, for which the figures for the Ki in assay [1] and in assay [2] were 3.16 nM and 501 nM, respectively.

Consider `N#Cc1ccc2c(c1)CCN(CC[C@H]1CC[C@H](NC(=O)c3ccc4c(c3)NC(=O)CO4)CC1)CC2`, for which the Ki in assay [1] was 6.31 nM; in assay [2], 794 nM.

With `N#Cc1ccc2c(c1)CCN(CC[C@H]1CC[C@H](NC(=O)c3ccc4ccc(O)nc4c3)CC1)CC2`, the Ki in assay [1] was 10 nM; in assay [2], 501 nM.

Consider `CC(=O)c1cccc(/C=C/C(=O)N[C@H]2CC[C@H](CCN3CCc4ccc(C#N)cc4CC3)CC2)c1`, for which the figures for the Ki in assay [1] and in assay [2] were 3.98 nM and 200 nM, respectively.

Regarding `N#Cc1ccc2c(c1)CCN(CC[C@H]1CC[C@H](NC(=O)c3ccnc4ccccc34)CC1)CC2`, the values for the Ki in assay [1] and in assay [2] were 25.1 nM and 1260 nM, respectively.

As to `N#Cc1ccc2c(c1)CCN(CC[C@H]1CC[C@H](NC(=O)/C=C/c3ccccc3F)CC1)CC2`, the Ki in assay [1] is 10 nM; in assay [2] it was 631 nM.

Take `N#Cc1ccc2c(c1)CCN(CC[C@H]1CC[C@H](NC(=O)c3ccc4ccccc4c3)CC1)CC2`: the Ki was 20 nM in assay [1] and 3160 nM in assay [2].

With `N#Cc1ccc2c(c1)CCN(CC[C@H]1CC[C@H](NC(=O)/C=C/c3cccc(F)c3)CC1)CC2`, the figures for the Ki in assay [1] and in assay [2] were 6.31 nM and 398 nM, respectively.

The values above are taken from ChEMBL document CHEMBL1133070, “Novel 2,3,4,5-tetrahydro-1H-3-benzazepines with high affinity and selectivity for the dopamine D3 receptor” (Bioorg Med Chem Lett, 2000).
